Measured values reported in patent US6994283B1, “Method for pulverizing to fine powder” (Nippon Shinyaku Co., Ltd., priority 1999, dated 2006).

Experiments:
[1] = Determination of particle diameter (ultracentrifugal automatic particle size distribution analyzer, silicone oil dispersion); format: physicochemical
Protocol: Determination of Particle Diameter
Twenty (20) mg each of the pre-pulverized present compound and the pulverizates of the compound as obtained in Examples 1 and 2 and Comparative Example 1 was taken in a test tube and 5 ml of silicone oil (product of Shin-Etsu Chemical Co.) was added. The mixture was stirred with a bench-top mixer for 20 seconds and further dispersed with a bench-top supersonic washer (UT-51N, product of Sharp Corporation) for 5 minutes. Then, the particle size distribution was determined with an ultracentrifugal automatic particle size distribution analyzer (CAPA-700, manufactured by Horiba, Ltd.).

[2] = Confirmation of crystalline state by powder X-ray diffraction; format: physicochemical; conditions: after a pulverization time of 60 minutes, mill of the closed-circuit pulverizing type
Protocol: Confirmation of Crystalline State
Using each of the unpulverized present compound and the pulverizates of the same compound as obtained in Examples 1 and 2 and Comparative Example 1, the powder X-ray diffraction pattern was recorded with a powder x-ray diffraction analyzer (RAD-2B, manufactured by Rigaku Denki).
It will be apparent from the drawings that the pulverizates as micronized with a mill of the open-circuit pulverizing type retained the crystalline form, showing X-ray diffraction peaks.

[3] = Administration experiment (in vivo): oral capsule, plasma concentration of the metabolite by HPLC; conditions: 4 male crab-eating monkeys, capsule of Example 1 pulverizate versus capsule of unpulverized compound
Text: Administration Experiment (in vivo)
A capsule prepared using the unpulverized present compound and a capsule prepared using the pulverizate obtained in Example 1 (the present pulverizate) according to the physical blending formula shown in Table 2 were respectively administered orally to 4 crab-eating monkeys (male, aged 6˜9 years). The blood was serially sampled and the plasma concentration of the metabolite of the present compound [(E)-4-[2-[2-[N-(4-methoxybenzenesulfonyl)amino]phenyl]-ethenyl]pyridine 1-oxide] was determined by HPLC.
The abscissa represents time (hrs) and the ordinate represents the plasma concentration (μg/ml) of the metabolite.

[4] = after 120 min. pulverization, planetary ball-mill
[5] = before pulverization (bulk powder)

SMILES | Mean particle diameter ([1]; after 30 min. pulverization, planetary ball-mill) [μm] | Mean particle diameter ([1]; after 60 min. pulverization, planetary ball-mill) [μm] | Fraction of particles ≧30 μm [1, 4] [%] | Mean particle diameter [1, 4] [μm] | Fraction of particles ≧30 μm [1, 5] [%] | Fraction of particles ≧50 μm [1, 5] [%] | Mean particle diameter [1, 5] [μm] | Crystalline state (X-ray diffraction peaks) [2] | Fraction of particles ≧30 μm ([1]; after pulverization) [%] | Mean particle diameter ([1]; after pulverization) [μm] | Fraction of particles ≧50 μm ([1]; after pulverization) [%] | Plasma concentration (metabolite determined by HPLC) [3]
COc1ccc(S(=O)(=O)N(C(C)=O)c2ccccc2/C=C/c2cc[n+]([O-])cc2)cc1 [Comparative Example, (E)-4-[2-[2-[N-acetyl-N-(4-methoxybenzenesulfonyl)amino]phenyl]ethenyl]-pyridine 1-oxide] | 15.1 | 12.4 | 0 | 10.7 ± 4.5 | 35.5 | 20.4 | 25.9 ± 43.3 | changed to a non-crystalline compound showing no X-ray diffraction peaks | – | – | – | –
COc1ccc(S(=O)(=O)N(C(C)=O)c2ccccc2/C=C/c2cc[n+]([O-])cc2)cc1 [Example 1, (E)-4-[2-[2-[N-acetyl-N-(4-methoxybenzenesulfonyl)amino]phenyl]ethenyl]-pyridine 1-oxide] | – | – | – | – | 35.5 | 20.4 | 25.9 ± 43.3 | – | 0 | 9.7 ± 4.3 | – | –
COc1ccc(S(=O)(=O)N(C(C)=O)c2ccccc2/C=C/c2cc[n+]([O-])cc2)cc1 [Example 2, (E)-4-[2-[2-[N-acetyl-N-(4-methoxybenzenesulfonyl)amino]phenyl]ethenyl]-pyridine 1-oxide] | – | – | – | – | 26.6 | 12.8 | 24.2 ± 31.2 | – | 6.8 | 15.2 ± 6.8 | 0 | –
COc1ccc(S(=O)(=O)N(C(C)=O)c2ccccc2/C=C/c2cc[n+]([O-])cc2)cc1 [the present compound, (E)-4-[2-[2-[N-acetyl-N-(4-methoxybenzenesulfonyl)amino]phenyl]ethenyl]-pyridine 1-oxide] | – | – | – | – | – | – | – | – | – | – | – | significantly increased
